Assay results: patent US4220644A, “7-Acylamino-3-(substituted tetrazolyl thiomethyl) cephalosporins” (SmithKline Corporation, priority 1976, dated 1980)
Values after ≈ are worked out from the molar mass of the structure shown. Where two headings read alike, the source gives them in different places.

Legend:
[1] = system: Entero. aerog. ATCC 13048; assay: MIC in vitro (Table 1), Entero. aerog. ATCC 13048; format: cell-based
Source text: (§1) Compound names corresponding to numbers are given in the experimental section. For comparative purposes, data for cephamandole, which is 7-mandelamido-3-(1-methyltetrazol-5-ylthiomethyl)-3-cephem-4-carboxylic acid, is also given in Tables 1 and 2.

[2] = system: Strep. Faecalis HH 34358; assay: MIC in vitro (Table 1), Strep. Faecalis HH 34358; format: cell-based; details: in vitro, Strep. Faecalis HH 34358
Source text: as §1

[3] = system: Kleb. pneumo. SK 1200; assay: MIC in vitro (Table 1), Kleb. pneumo. SK 1200; format: cell-based
Source text: as §1

[4] = system: S. aureus HH 127; assay: MIC in vitro (Table 1), S. aureus HH 127; format: cell-based; details: S. aureus HH 127
Source text: as §1

[5] = system: Serra. Marc. ATCC 13880; assay: MIC in vitro (Table 1), Serra. Marc. ATCC 13880; format: cell-based; details: in vitro, Serra. Marc. ATCC 13880
Source text: as §1

[6] = system: Shigella HH 117; assay: MIC in vitro (Table 1), Shigella HH 117; format: cell-based
Source text: as §1, with “The compounds of Formula I have antibacterial activity against both Gram-positive and Gram-negative organisms. […] Compound” for “Compound”

[7] = system: E. coli HH 33779; assay: MIC in vitro (Table 1), E. coli HH 33779; format: cell-based
Source text: as §1

[8] = system: Entero. cloacae HH 31254; assay: MIC in vitro (Table 1), Entero. cloacae HH 31254; format: cell-based
Source text: as §1

[9] = system: E. coli SK 12140; assay: MIC in vitro (Table 1), E. coli SK 12140; format: cell-based
Source text: as §1

[10] = system: Salmonella ATCC 12176; assay: MIC in vitro (Table 1), Salmonella ATCC 12176; format: cell-based
Source text: as §1, with “The compounds of Formula I have antibacterial activity against both Gram-positive and Gram-negative organisms. […] Compound” for “Compound”

[11] = system: Kleb. pneumo. SK 4200; assay: MIC in vitro (Table 1), Kleb. pneumo. SK 4200; format: cell-based
Source text: as §1

[12] = system: Proteus morgani 179; assay: MIC in vitro (Table 1), Proteus morgani 179; format: cell-based
Source text: as §1

[13] = system: S. villaluz; assay: MIC in vitro (Table 1), S. villaluz; format: cell-based
Source text: as §1, with “The compounds of Formula I have antibacterial activity against both Gram-positive and Gram-negative organisms. […] Compound” for “Compound”

[14] = system: S. aureus SK 23390; assay: MIC in vitro (Table 1), S. aureus SK 23390; format: cell-based
Source text: as §1

[15] = system: E. coli 12140; assay: In vivo mouse protection (Table 2), E. coli 12140
Source text: as §1

[16] = system: Kleb. pneumo. 4200; assay: In vivo mouse protection (Table 2), Kleb. pneumo. 4200
Source text: as §1

[17] = system: Pseudo. sp. HH 63; assay: MIC in vitro (Table 1), Pseudo. sp. HH 63; format: cell-based; details: in vitro, Pseudo. sp. HH 63; read-out: MIC
Source text: as §1, with “The compounds of Formula I have antibacterial activity against both Gram-positive and Gram-negative organisms. […] Compound” for “Compound”

[18] = Escherichia coli, 12140, po, E. coli 12140, p.o.
[19] = Escherichia coli, 12140, sc, E. coli 12140, s.c.
[20] = Enterococcus faecalis, read-out: MIC
[21] = Staphylococcus aureus, HH127, in vitro, read-out: MIC
[22] = Shigella, HH117, in vitro, read-out: MIC
[23] = Salmonella, ATCC12176, in vitro, read-out: MIC
[24] = in vitro, Entero. aerog. ATCC 13048, read-out: MIC
[25] = Escherichia coli, HH33779, in vitro, E. coli HH 33779, read-out: MIC
[26] = Enterobacter cloacae, HH31254, in vitro, Entero. cloacae HH 31254, read-out: MIC
[27] = Escherichia coli, SK12140, in vitro, read-out: MIC
[28] = in vitro, Kleb. pneumo. SK 4200, read-out: MIC

Row | Compound | MIC [3] [µg/mL] | MIC ([6]; in vitro) [µg/mL] | MIC ([10]; in vitro) [µg/mL] | MIC [12] [µg/mL] | MIC ([14]; in vitro, S. aureus SK 23390) [µg/mL] | MIC [1] [µg/mL] | ED50 [15, 18] [mg/kg] | ED50 [15, 19] [mg/kg] | MIC [2, 20] [µg/mL] | MIC [4, 21] [µg/mL] | MIC ([5]; read-out: MIC) [µg/mL] | ED50 ([16]; po, Kleb. pneumo. 4200, p.o.) [mg/kg] | ED50 ([16]; sc, Kleb. pneumo. 4200, s.c.) [mg/kg] | MIC [6, 22] [µg/mL] | MIC [17] [µg/mL] | MIC ([8]; Enterobacter cloacae, HH31254) [µg/mL] | MIC [10, 23] [µg/mL] | MIC ([14]; Staphylococcus aureus, SK23390) [µg/mL] | MIC [7, 25] [µg/mL] | MIC [9, 27] [µg/mL] | other results
1 | 7-(α-Carboxythienylacetamido)-3-(1-carboxymethyltetrazol-5-ylthiomethyl)-3-cephem-4-carboxylic acid [XIX] | 6 | 6 | 25 | 6 | 50 |  |  |  |  |  |  |  |  |  |  |  |  |  |  |  | MIC ([1]; in vitro, Entero. aerog. ATCC 13048): 50 µg/mL; MIC [2]: 200 µg/mL; MIC ([4]; in vitro): 50 µg/mL; MIC [5]: 50 µg/mL; MIC ([7]; in vitro, E. coli HH 33779): 50 µg/mL; MIC ([8]; in vitro, Entero. cloacae HH 31254): 50 µg/mL; MIC ([9]; in vitro): 25 µg/mL; MIC ([11]; in vitro, Kleb. pneumo. SK 4200): 50 µg/mL; MIC [13]: 100 µg/mL
2 | CNC(=O)Cn1nnnc1SCC1=C(C(=O)O)N2C(=O)C(NC(=O)[C@H](O)c3ccccc3)[C@H]2SC1 (stereo partly drawn) [III, 7-D-Mandelamido-3-(1-N-methylcarbamoylmethyltetrazol-5-ylthiomethyl)-3-cephem-4-carboxylic acid] | 3.1 (≈ 5.97 µM) |  |  | 3.1 (≈ 5.97 µM) |  | 3.1 (≈ 5.97 µM) | 34 | 1.56 | 25 (≈ 48.1 µM) | 1.6 (≈ 3.08 µM) | 25 (≈ 48.1 µM) | > 50 | 2.8 | 3.1 (≈ 5.97 µM) | > 200 | 3.1 (≈ 5.97 µM) | 0.8 (≈ 1.54 µM) | 3.1 (≈ 5.97 µM) |  |  | MIC ([7]; Escherichia coli, HH33779): 3.1 µg/mL (≈ 5.97 µM); MIC ([9]; Escherichia coli, SK12140, in vitro): 3.1 µg/mL (≈ 5.97 µM); MIC [11]: 3.1 µg/mL (≈ 5.97 µM)
3 | CN(C)C(=O)Cn1nnnc1SCC1=C(C(=O)O)N2C(=O)C(NC(=O)[C@H](O)c3ccccc3)C2SC1 (stereo partly drawn) [IV, 7-D-Mandelamido-3-(1-N,N-dimethylcarbamoylmethyltetrazol-5-ylthiomethyl)-3-cephem-4-carboxylic acid] |  |  |  |  |  |  | 168 | 2.5 | 25 (≈ 46.9 µM) | 1.6 (≈ 3 µM) | 100 (≈ 187 µM) | 168 | 7.5 | 0.8 (≈ 1.5 µM) | > 200 |  | 3.1 (≈ 5.81 µM) | 0.8 (≈ 1.5 µM) | 6.3 (≈ 11.8 µM) | 3.1 (≈ 5.81 µM) | MIC [1, 24]: 6.3 µg/mL (≈ 11.8 µM); MIC ([3]; read-out: MIC): 1.6 µg/mL (≈ 3 µM); MIC [8, 26]: 1.6 µg/mL (≈ 3 µM); MIC [11, 28]: 3.1 µg/mL (≈ 5.81 µM); MIC ([13]; read-out: MIC): 50 µg/mL (≈ 93.7 µM)
4 | CN(C)C(=O)Cn1nnnc1SCC1=C(C(=O)O)N2C(=O)C(NC(=O)[C@H](N)c3ccc(O)cc3)C2SC1 (stereo partly drawn) [IX, 7-(D-α-Amino-4-hydroxyphenylacetamido)-3-(1-N,N-dimethylcarbamoylmethyltetrazol-5-ylthiomethyl)-3-cephem-4-carboxylic acid] | 6.3 (≈ 11.5 µM) |  |  |  |  | 12.5 (≈ 22.8 µM) | 28.5 | 1.56 | 25 (≈ 45.6 µM) | 12.5 (≈ 22.8 µM) | 200 (≈ 365 µM) | 18 | 3.7 | 6.3 (≈ 11.5 µM) | > 200 | 3.1 (≈ 5.65 µM) | 3.1 (≈ 5.65 µM) | 6.3 (≈ 11.5 µM) | 12.5 (≈ 22.8 µM) | 12.5 (≈ 22.8 µM) | MIC [11]: 6.3 µg/mL (≈ 11.5 µM); MIC ([12]; read-out: MIC): 100 µg/mL (≈ 182 µM)
5 | NC(=O)Cn1nnnc1SCC1=C(C(=O)O)N2C(=O)C(NC(=O)[C@H](O)c3ccccc3)[C@H]2SC1 (stereo partly drawn) [V, 7-D-Mandelamido-3-(1-carbamoylmethyltetrazol-5-ylthiomethyl)-3-cephem-4-carboxylic acid] | 0.4 (≈ 0.791 µM) | 0.4 (≈ 0.791 µM) | 0.4 (≈ 0.791 µM) | 1.6 (≈ 3.16 µM) | 1.6 (≈ 3.16 µM) |  | 50 | 1.56 | 25 (≈ 49.5 µM) | 1.6 (≈ 3.16 µM) | 12.5 (≈ 24.7 µM) | 21.2 | 1.3 | 0.2 (≈ 0.396 µM) | > 200 | 0.4 (≈ 0.791 µM) | 0.8 (≈ 1.58 µM) |  | 1.6 (≈ 3.16 µM) | 0.8 (≈ 1.58 µM) | MIC [1, 24]: 1.6 µg/mL (≈ 3.16 µM); MIC ([3]; read-out: MIC): 0.8 µg/mL (≈ 1.58 µM); MIC [8, 26]: 0.8 µg/mL (≈ 1.58 µM); MIC [11, 28]: 1.6 µg/mL (≈ 3.16 µM); MIC ([12]; read-out: MIC): 3.1 µg/mL (≈ 6.13 µM); MIC ([13]; read-out: MIC): 25 µg/mL (≈ 49.5 µM); MIC ([14]; Staphylococcus aureus, SK23390, in vitro, S. aureus SK 23390, read-out: MIC): 3.1 µg/mL (≈ 6.13 µM)
